Here are results for 2 compounds from paper PMC12326981, “Novel C5α-substituted carbapenems enhance Mycobacterium abscessus killing via selective target binding and reduced hydrolysis by BlaMab” (Antimicrobial Agents and Chemotherapy, 2025).

Experiment [1] has as its target T1, PBP-lipo (Mycobacteroides abscessus, UniProt B1MDC3).
T1 construct: made in house; host or cells: Escherichia coli BL21 (DE3)
As to the kind of experiment: Bocillin-FL competitive binding assay. The note with it: Bocillin-FL competition, 1:10 molar ratio. How it is done: The binding of JDB/NA-1-157 and JDB/NA-1-208 to PBP-lipo was assessed using a Bocillin-FL competitive assay as previously described ([25]). Briefly, purified PBP-lipo and the compounds (at a 1:10 molar ratio) were incubated in a buffer containing 10 mM sodium phosphate (pH 7.4) and 150 mM NaCl for 2 h at room temperature, followed by additional incubation with 1 µM Bocillin FL for 4 h at 37°C. Samples were boiled and analyzed by SDS-PAGE. The PBP-lipo:Bocilli complexes were detected via fluorescence at 488 nm using an Azure 300 gel imaging system. Band intensity was quantified using GelAnalyzer software.

A further experiment deals with Mab ATCC 19977. Description: MIC testing with drugs pre-incubated in 7H9 broth (effect of drug instability). The class given is cell-based, Mycobacterium abscessus. The note with it: for MIC: Mycobacteroides abscessus, ATCC19977; for MIC rise after 24 and 48 h incubation vs nonincubated: drug incubated 24 and 48 h. How it is done: MICs were determined in duplicate following Clinical Laboratory Standards Institute ([52]) guidelines using Middlebrook 7H9 broth supplemented with 10% (vol/vol) oleic acid-albumin-dextrose-catalase (OADC) and 0.05% (vol/vol) Tween 80, with an inoculum of 5 × 10⁵ CFU/mL. MIC testing of two C5α-substituted carbapenems was conducted both individually and in combination with cephalosporins (cefuroxime and ceftaroline), penicillins (amoxicillin), or BLIs (avibactam or durlobactam + sulbactam). Avibactam, durlobactam, cefuroxime, ceftaroline, and amoxicillin were fixed at concentrations of 4, 1, 2, 4, and 4 mg/L, respectively. Amoxicillin was combined with 4 mg/L avibactam, as it is highly susceptible to hydrolysis by BlaMab ([12], [15], [25]). The MIC was defined as the lowest antibiotic concentration that inhibited visible bacterial growth following 48 h of incubation at 30°C.

Experiment [2] addresses T1, PBP-lipo. Description: Apparent inhibition constant (nitrocefin, Dixon plot). It is filed as biochemical. To be noted: Ki,app. How it is done:
(§1) Steady-state kinetic studies with JDB/NA-1-157 and JDB/NA-1-208 were performed using purified LDTs and PBPs, including LDT1–5, PBP-B, PBP-lipo, and D,D-carboxypeptidase. The assays were conducted on a BioTek Synergy2 multimode reader equipped with Gen5 software. To determine the Michaelis constant (Km^NCF) for each LDT and PBP, a wide range of NCF concentrations was tested, while the enzyme concentrations were fixed. Absorbance changes at 482 nm were monitored over 10 min. Steady-state kinetic parameters (Vmax and Km) were derived by fitting the experimental data to the Henri–Michaelis–Menten equation using nonlinear least-squares regression in GraphPad Prism version 9. The reaction velocity (v) at a given substrate concentration ([S]) was calculated using equation 2: […]
(§2) The apparent inhibition constants (Ki,app) for JDB/NA-1-157 and JDB/NA-1-208 were determined under the following conditions: an NCF concentration of 5 × Km, fixed concentrations of LDT or PBP enzymes, and varying concentrations of JDB/NA-1-157 and JDB/NA-1-208. Absorbance changes at 482 nm were monitored over a 30 min period for each inhibitor concentration. The data were linearized using a Dixon plot, which involves plotting the reciprocal of the absorbance change (1/ΔA) against the concentrations of JDB/NA-1-157 or JDB/NA-1-208. Apparent Ki,app values were derived from the intersection points on the Dixon plot and were subsequently corrected for substrate concentration and enzyme affinity using equation 3:
(§3) (3) Ki,app=observed Ki,app/1+[NCF]/Km NCF.

The target in experiment [3] is T2, PBP B (Mycobacteroides abscessus, UniProt B1MP31). The description is as above. The note with it: PBP B. The class given is biochemical. The method, then:
as §1, §2, §3

In a further experiment the target is LDT2 (Mycobacteroides abscessus, UniProt B1MMQ4). The experiment is described as above. The note with it: Ki,app. The class given is biochemical, Mycobacterium abscessus. How it is done: as §1, §2, §3
Another experiment has as its target PonA2 (Mycobacteroides abscessus, UniProt B1MFV7). The description is as above. The class given is biochemical, Mycobacterium abscessus. To be noted: Ki,app. How it is done: as §1, §2, §3
In a further experiment the target is LDT1 (Mycobacteroides abscessus, UniProt B1MDC1). Described as above. It is filed as biochemical, Mycobacterium abscessus. The note with it: Ki,app. The method, then:
as §1, §2, §3

Another experiment has as its target LDT3 (Mycobacteroides abscessus, UniProt B1MHQ4). Description: Mass spectrometric analysis of acyl-enzyme adducts. The note with it: LDT3 (44,795); 1:10 molar ratio, 2 h; accuracy ±5 Da. The class given is binding, Mycobacterium abscessus. The method, then: (§4) Truncated sequences of BlaMab (Δ1–30 blaMab), LDT1–5, DDC, PBP B, PonA2, and PBP-lipo (Δ1–41) were synthesized by Celtek Biosciences (Franklin, TN) and cloned into the pET28(a)+ vector. Purification of LDTs and PBPs was carried out as previously described ([15], [16], [20]). Briefly, clones were transformed into Escherichia coli BL21 (DE3), and protein expression was induced with 0.25 mM isopropyl β-d-1-thiogalactopyranoside. Cell pellets were resuspended in buffer containing 50 mM Tris (pH 8.0), 400 mM sodium chloride, and 1 mM Tris(2-carboxyethyl)phosphine hydrochloride and lysed by sonication. After centrifugation, the supernatant was purified using a His Prep FF column and eluted with 500 mM imidazole.
(§5) The purified proteins were incubated at room temperature with JDB/NA-1-157 and JDB/NA-1-208 at a molar ratio of 1:10 for 2 h. A quadrupole time-of-flight mass spectrometer (Waters Synapt-G2-Si) with electrospray ionization and a Waters Acquity H-Class UPLC system were used to analyze the samples. The liquid chromatography conditions were as follows: a BEH C18 column (1.7 µm, 2.1 × 50 mm) and a mobile phase consisting of 0.1% formic acid in water and 0.1% formic acid in acetonitrile, with a gradient elution from 10% to 90% acetonitrile over 11 min at a flow rate of 0.5 mL/min. The MS settings were optimized with a capillary voltage of 3 kV, a sampling cone voltage of 35 V, and source and desolvation temperatures of 100°C and 500°C, respectively. Gas flow rates were 100 L/h for the cone and 800 L/h for desolvation. The mass accuracy was maintained at ±5 Da.

A further experiment concerns the target LDT4 (Mycobacteroides abscessus, UniProt B1MKW1). As to the kind of experiment: Mass spectrometric analysis of acyl-enzyme adducts. To be noted: LDT4 (32,567); 1:10 molar ratio, 2 h; accuracy ±5 Da. It is filed as binding, Mycobacterium abscessus. The method, then:
as §4, §5

The target in another experiment is BlaMab (Mycobacteroides abscessus, UniProt B1MCI3). As to the kind of experiment: Mass spectrometric analysis of acyl-enzyme adducts. The class given is binding. Also noted: key to Mass of protein after incubation (mass shift): (.) indicates no detectable binding. To be noted: for adduct formation with BlaMab: mass spectrometry. How it is done:
as §4, §5

Experiment [4] addresses T2, PBP B. Description: Mass spectrometric analysis of acyl-enzyme adducts. To be noted: PBP B (65,863); 1:10 molar ratio, 2 h; accuracy ±5 Da. The class given is binding. The method, then:
as §4
The purified proteins were incubated at room temperature with JDB/NA-1-157 and JDB/NA-1-208 at a molar ratio of 1:10 for 2 h. A quadrupole time-of-flight mass spectrometer (Waters Synapt-G2-Si) with electrospray ionization and a Waters Acquity H-Class UPLC system were used to analyze the samples. The liquid chromatography conditions were as follows: a BEH C18 column (1.7 µm, 2.1 × 50 mm) and a mobile phase consisting of 0.1% formic acid in water and 0.1% formic acid in acetonitrile, with a gradient elution from 10% to 90% acetonitrile over 11 min at a flow rate of 0.5 mL/min. […]

Where [5] appears, read: drug incubated 6 h in 7H9 broth at 30°C.
Setting [6] is: drug incubated 24 h in 7H9 broth at 30°C.
The mark [7] stands for this setting: drug incubated 48 h in 7H9 broth at 30°C.

Each structure is given as a SMILES string. Where two headings read alike, the source gives them in different places. Marks after values point to notes of the source that are not given here.

Sequence of BlaMab (B1MCI3 entry or part of it): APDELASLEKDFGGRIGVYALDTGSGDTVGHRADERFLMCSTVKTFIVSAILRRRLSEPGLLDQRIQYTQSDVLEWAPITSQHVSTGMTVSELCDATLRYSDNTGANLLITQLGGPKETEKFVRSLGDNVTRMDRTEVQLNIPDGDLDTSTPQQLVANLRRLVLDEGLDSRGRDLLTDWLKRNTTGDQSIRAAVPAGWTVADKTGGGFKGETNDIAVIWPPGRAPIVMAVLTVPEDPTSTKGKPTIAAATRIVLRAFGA
T2 sequence (B1MP31 entry or part of it): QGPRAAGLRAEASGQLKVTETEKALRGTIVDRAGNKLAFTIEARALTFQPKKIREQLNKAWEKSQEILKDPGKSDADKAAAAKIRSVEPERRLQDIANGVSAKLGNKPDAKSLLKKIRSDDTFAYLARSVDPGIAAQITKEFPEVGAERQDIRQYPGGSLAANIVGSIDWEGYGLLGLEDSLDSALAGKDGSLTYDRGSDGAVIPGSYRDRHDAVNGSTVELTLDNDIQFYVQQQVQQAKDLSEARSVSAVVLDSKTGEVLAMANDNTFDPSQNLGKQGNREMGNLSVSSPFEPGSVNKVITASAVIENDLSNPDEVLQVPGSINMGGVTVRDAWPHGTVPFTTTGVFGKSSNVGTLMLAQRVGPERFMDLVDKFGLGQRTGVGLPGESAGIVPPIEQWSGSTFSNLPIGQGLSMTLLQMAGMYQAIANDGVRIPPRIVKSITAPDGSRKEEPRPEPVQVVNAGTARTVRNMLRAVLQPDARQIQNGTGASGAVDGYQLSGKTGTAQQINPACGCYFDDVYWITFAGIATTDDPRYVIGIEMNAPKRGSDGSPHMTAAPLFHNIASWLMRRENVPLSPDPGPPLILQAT
T1 sequence (B1MDC3 entry or part of it): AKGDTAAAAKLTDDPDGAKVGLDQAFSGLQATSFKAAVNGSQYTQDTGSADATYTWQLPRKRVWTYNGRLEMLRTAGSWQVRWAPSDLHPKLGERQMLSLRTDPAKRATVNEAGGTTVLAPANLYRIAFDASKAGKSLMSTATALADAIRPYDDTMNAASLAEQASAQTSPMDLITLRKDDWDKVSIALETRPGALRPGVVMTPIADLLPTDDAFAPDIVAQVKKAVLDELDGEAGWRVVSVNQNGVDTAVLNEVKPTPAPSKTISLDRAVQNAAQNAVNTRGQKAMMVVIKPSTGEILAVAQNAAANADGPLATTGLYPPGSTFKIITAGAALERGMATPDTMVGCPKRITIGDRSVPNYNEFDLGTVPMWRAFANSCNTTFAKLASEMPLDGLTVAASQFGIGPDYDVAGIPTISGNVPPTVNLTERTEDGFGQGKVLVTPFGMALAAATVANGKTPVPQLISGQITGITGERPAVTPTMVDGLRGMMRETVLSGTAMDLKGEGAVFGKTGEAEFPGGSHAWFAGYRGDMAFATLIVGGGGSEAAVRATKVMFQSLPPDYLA
Sequence of PonA2 (B1MFV7 entry or part of it): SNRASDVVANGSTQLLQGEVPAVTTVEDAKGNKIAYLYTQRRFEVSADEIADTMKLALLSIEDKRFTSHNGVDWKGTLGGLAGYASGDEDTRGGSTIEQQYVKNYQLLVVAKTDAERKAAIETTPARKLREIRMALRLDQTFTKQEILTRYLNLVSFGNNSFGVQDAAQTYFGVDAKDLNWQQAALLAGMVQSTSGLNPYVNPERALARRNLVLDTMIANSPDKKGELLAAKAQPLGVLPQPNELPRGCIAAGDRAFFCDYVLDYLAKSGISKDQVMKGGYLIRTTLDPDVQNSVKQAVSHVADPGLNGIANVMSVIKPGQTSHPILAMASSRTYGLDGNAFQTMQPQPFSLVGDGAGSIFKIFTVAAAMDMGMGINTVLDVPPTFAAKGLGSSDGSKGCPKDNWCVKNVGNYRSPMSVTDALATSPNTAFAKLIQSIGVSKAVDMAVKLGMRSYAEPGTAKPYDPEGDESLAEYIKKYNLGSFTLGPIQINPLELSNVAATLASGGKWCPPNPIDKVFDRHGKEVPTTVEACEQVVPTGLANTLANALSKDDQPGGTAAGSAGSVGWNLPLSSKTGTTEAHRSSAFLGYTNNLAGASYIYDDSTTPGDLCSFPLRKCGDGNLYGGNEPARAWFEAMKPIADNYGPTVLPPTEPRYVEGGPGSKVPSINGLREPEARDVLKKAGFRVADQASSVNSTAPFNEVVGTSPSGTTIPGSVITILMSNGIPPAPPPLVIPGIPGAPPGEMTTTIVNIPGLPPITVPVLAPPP
Sequence of LDT1 (B1MDC1 entry or part of it): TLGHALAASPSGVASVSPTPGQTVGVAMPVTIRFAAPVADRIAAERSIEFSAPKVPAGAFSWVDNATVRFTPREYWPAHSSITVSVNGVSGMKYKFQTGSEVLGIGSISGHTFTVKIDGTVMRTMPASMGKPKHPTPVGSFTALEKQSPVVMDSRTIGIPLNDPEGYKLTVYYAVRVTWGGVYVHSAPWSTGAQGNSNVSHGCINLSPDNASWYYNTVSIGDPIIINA
Sequence of LDT2 (B1MMQ4 entry or part of it): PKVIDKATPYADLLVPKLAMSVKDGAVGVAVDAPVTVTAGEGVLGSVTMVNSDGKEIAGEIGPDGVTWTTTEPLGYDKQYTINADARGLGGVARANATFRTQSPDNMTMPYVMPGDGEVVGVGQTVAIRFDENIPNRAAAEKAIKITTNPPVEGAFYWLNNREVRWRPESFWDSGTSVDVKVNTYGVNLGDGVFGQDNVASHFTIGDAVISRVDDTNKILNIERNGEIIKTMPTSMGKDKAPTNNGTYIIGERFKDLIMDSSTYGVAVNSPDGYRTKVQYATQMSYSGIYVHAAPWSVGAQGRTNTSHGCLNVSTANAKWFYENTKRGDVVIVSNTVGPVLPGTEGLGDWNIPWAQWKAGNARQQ
Sequence of LDT3 (B1MHQ4 entry or part of it): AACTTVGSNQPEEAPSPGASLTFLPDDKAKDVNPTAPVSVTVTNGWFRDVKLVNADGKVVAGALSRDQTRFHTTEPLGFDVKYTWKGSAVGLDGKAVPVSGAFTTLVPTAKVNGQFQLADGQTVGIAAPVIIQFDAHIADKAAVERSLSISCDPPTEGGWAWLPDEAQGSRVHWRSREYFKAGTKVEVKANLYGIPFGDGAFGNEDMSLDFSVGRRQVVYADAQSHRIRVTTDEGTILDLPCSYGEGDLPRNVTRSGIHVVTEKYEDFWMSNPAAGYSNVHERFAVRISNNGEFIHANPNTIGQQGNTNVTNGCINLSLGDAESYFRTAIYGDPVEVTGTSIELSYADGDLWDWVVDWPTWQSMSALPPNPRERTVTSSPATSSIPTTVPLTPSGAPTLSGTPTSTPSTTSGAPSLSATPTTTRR
Sequence of LDT4 (B1MKW1 entry or part of it): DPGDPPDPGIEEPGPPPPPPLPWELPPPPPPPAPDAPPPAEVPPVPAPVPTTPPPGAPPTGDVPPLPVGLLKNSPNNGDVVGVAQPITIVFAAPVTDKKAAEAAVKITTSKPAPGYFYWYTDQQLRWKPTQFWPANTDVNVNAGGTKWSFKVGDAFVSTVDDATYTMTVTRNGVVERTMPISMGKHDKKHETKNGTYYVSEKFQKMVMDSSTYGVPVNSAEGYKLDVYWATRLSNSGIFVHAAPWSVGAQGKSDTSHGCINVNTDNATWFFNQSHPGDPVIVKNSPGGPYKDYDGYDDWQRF

For `C[C@@H](O)[C@H]1C(=O)N2C(C(=O)O)=C(S[C@@H]3CN[C@H](C(=O)N(C)C)C3)C[C@]12C` [JDB/NA-1-157], the “binding to PBP-lipo” value at PBP-lipo [1] was “form acyl-enzyme complexes”. Besides, the MIC is 0.25 µg/mL with Mab ATCC 19977 (setting [5]), 2 µg/mL in the experiment on Mab ATCC 19977 (setting [6]), 2 µg/mL in the experiment with Mab ATCC 19977 (setting [7]) and 0.25 µg/mL with Mab ATCC 19977 (no incubation of drug). Moreover, the “MIC rise after 24 and 48 h incubation vs nonincubated” value in the experiment with Mab ATCC 19977 was “fourfold”. Further, the Ki on PBP-lipo [2] is 258 nM; at PBP B [3] (Ki,app), 4900 nM; at LDT2, 130 nM; on PonA2 it was 7.82 nM; on LDT1 it was 7980 nM. Besides, the “Mass of protein after incubation (mass shift)” value is given as 45,178 (+383) Da on LDT3 and 32,950 (+383) Da at LDT4. Moreover, the “adduct formation with BlaMab” value at BlaMab is reported as “formed a complex”.
With `CC[C@]12CC(S[C@@H]3CN[C@H](C(=O)N(C)C)C3)=C(C(=O)O)N1C(=O)[C@@H]2[C@@H](C)O` [JDB/NA-1-208], the “Mass of protein after incubation (mass shift)” value at PBP B [4] is listed as 66,262 (+397) Da; on LDT3, 45,194 (+397) Da; at LDT4, 32,964 (+397) Da; on BlaMab (BlaMab (28,433), 1:10 molar ratio, 2 h, room temperature, accuracy ±5 Da) it was 28,434 (.)^b. At PBP-lipo [1], the “binding to PBP-lipo” value is “lacks binding”. Also, the minimal inhibitory concentration (MIC) in the experiment on Mab ATCC 19977 (setting [5]) stood at 16 µg/mL; with Mab ATCC 19977 (setting [6]), 32 µg/mL; in the experiment on Mab ATCC 19977 (setting [7]), 32 µg/mL; in the experiment on Mab ATCC 19977 (no incubation of drug), 16 µg/mL. For the same compound, the “MIC rise after 24 and 48 h incubation vs nonincubated” value with Mab ATCC 19977 is “twofold”. Also, the Ki at PBP B [3] (read-out: Ki,app (converted)) is 80.5 nM; at LDT2, 166 nM; on PonA2, 352 nM; at LDT1, 1110 nM. Also, at BlaMab, the “adduct formation with BlaMab” value is reported as “did not form an adduct”.

Broadly, the MIC is the lowest concentration that inhibits growth of the organism.
